Three compounds from patent US20140056983A1, “FOOD ADDITIVE FOR RUMINANTS BASED ON EUGENOL AND CINNAMALDEHYDE” (priority 2005, published 2014) can be followed below.

The subject of test [1] is liquid taken from the rumen. Put plainly: Study 1: in vitro digestibility of dehydrated alfalfa in rumen liquid (Tilley and Terry method). The conditions noted are these: for ADFd (digestibility of acid digestible fiber) / DMd (digestibility of the dry matter) / NDFd (digestibility of neutral digestible fiber): dehydrated alfalfa, 30 ppm additive in total (mixture 15 + 15 ppm), 39° C., 24 hours; for digestibility of the fibers of the dehydrated alfalfa (in words): versus no additive. Further details: species or system cows. As for the experimental part:
During this first study, the effects of a mixture according to the invention on the digestibility of the feed of the ruminant animals was analyzed, by conducting an “in vitro” study in accordance with the Tilley and Terry method (1963). For a more complete description of this method, please refer to the following publication: […]. and Terry, R. A. 1963. A two stage technique for the in vitro digestion of forage crops. J. Brit. Grassland Soc. 18-104-111. For incubation the following was used: • a) The basic feed made up of 100% dehydrated alfalfa, supplemented by an equal amount of Peugenol, or of cinnamaldehyde, or of a mixture of the two components; • b) MacDougall buffer; • c) Liquid taken from the empty rumen of four animals permanently equipped with a nozzle on the level of the rumen and nourished with the basic feed. […] The ruminated liquid originated in fistulated cows during the first 100 days of lactation. The state of the first container was preserved, without making any addition. […] In the third container, 30 ppm cinnamaldehyde was added. In the fourth container, 15 ppm of eugenol and 15 ppm of cinnamaldehyde was added. The containers were incubated at 39° C. during 24 hours. The DacronTM sachets were removed, washed and dried at 55° C. Various digestibility parameters were determined according to the Van Soest et al. method (1991). For a more complete description of this method, please refer to the following publication: Van Soest, P. J. Robertson. J. D., and Lewis, B. A. 1991. Methods for dietary fibre, neutral detergent fibre and non-starch polysaccharides in relation to animal nutrition. J. Dairy Se. 74: 3583-3597.

The test system of test [2] is Holstein-Freisan milk cows. Put plainly: Study 2: food consumption and dairy production in milk cows, Latin Square 4x4. The format is in vivo. The protocol: In the second study, the effect of a variation in the relative proportions of eugenol and cinnamaldehyde in a food additive on the production of meat and the dairy production was tested.
In this test, sixteen Holstein-Freisan milk cows, in their eighth week of lactation, were divided for Latin type Square 4×4 testing. Each period of treatment lasted two weeks.
The first group received a food without an additive.
The second group received a food containing 30 ppm cinnamaldehyde.
The third group received a food containing a mixture of 30 ppm cinnamaldehyde and 15 ppm of eugenol.
The fourth group received a food containing a mixture of 30 ppm eugenol and 16 ppm of cinnamaldehyde.
During each treatment period, the food consumption and the dairy production were measured.

The subject of the next test is rumen fluid. Put plainly: Study 5: in vitro feed digestibility, dose of the mixture versus monensin (Tilley and Terry method). Further details: species or system cows. Particulars: after 24 hours; mixture 28% eugenol and 17% cinnamaldehyde at 3, 30, 300 mg per animal/per day; monensin as reference. As for the experimental part: In the table above, the characteristics of each food are expressed as a percentage of dry matter, total protein, neutral digestible fiber (NDF), acid digestible fiber (ADF), for the oats, alfalfa, a complete feed (TMR). […] The effects of a mixture according to the invention on the feed digestibility according to the Tilley and Terry method were analyzed. […] Control bottles were also prepared, containing ethanol, to avoid the parasitic effects of fermentation due to ethanol. […] The results were analyzed by using mixed SAS procedures. The results were compared to the feed containing the monensin. The results from the feed containing monensin were considered a reference result. […] Thus, this fable reflects the digestibility of neutral digestible fiber (NDFd), digestibility of acid digestible fiber (ADFd), and dry matter digestibility (DMd), after 24 hours.

Where [3] appears, read: milk cows, eighth week of lactation, two-week treatment periods, ppm in food.

SMILES strings stand for the structures.

For `O=CC=Cc1ccccc1` [Cinnamaldehyde, cinnamaldehyde], in test [1], the “ADFd (digestibility of acid digestible fiber)” value (from here on “ADFd”) is 8.53%, the “DMd (digestibility of the dry matter)” value is 39.06%, the “NDFd (digestibility of neutral digestible fiber)” value (shortened to “NDFd”) was found to be 4.83% and the “digestibility of the fibers of the dehydrated alfalfa (in words)” value is “does not improve”. In test [2] (setting [3]), the “Food Consumption” value is reported as 2.571b kg MS/animal/d and the “Milk Production” value came out at 37.23 l/animal/d. In test [2] (versus no additive), the “food consumption (in words)” value is reported as “reduction” and the “milk production (in words)” value is “reduction”.

In the case of `C=CCc1ccc(O)c(OC)c1` [Eugenol, eugenol], in test [1], the “ADFd” value is 8.05%, the “DMd (digestibility of the dry matter)” value was 40.02%, the “NDFd” value was 5.63% and the “digestibility of the fibers of the dehydrated alfalfa (in words)” value was “does not improve”.

With `CC[C@@]1([C@@H]2O[C@@H]([C@H]3O[C@@](O)(CO)[C@H](C)C[C@@H]3C)C[C@@H]2C)CC[C@H]([C@]2(C)CC[C@]3(C[C@H](O)[C@@H](C)[C@@H]([C@@H](C)[C@@H](OC)[C@H](C)C(=O)O)O3)O2)O1` [MON, sodium-monensin], in the test with rumen fluid, the “ADFd” value is listed as 24.38, the “DMd (dry matter digestibility)” value was found to be 43.43 and the “NDFd” value is given as 22.24.
